Laboratory results reported in patent US9012398B2, “Acylated exendin-4 compounds” (priority 2006, dated 2015).
Where two headings read alike, the source gives them in different places. Starred links: 1 amine or outer side, 2 acyl side, 3 side chain; linkers in the order of their positions; H or OH if unused. Residues, ends and D or L forms follow the SMILES beside them. Groups on a side chain read outwards from the residue. *: point of attachment. C18 diacid = O=C(O)CCCCCCCCCCCCCCCCC(=O)*; γGlu = O=C(O)[C@H](CCC(=O)[*:2])N[*:1]; Stearoyl = CCCCCCCCCCCCCCCCCC(=O)*; Palmitoyl = CCCCCCCCCCCCCCCC(=O)*; AEEA = NCCOCCOCC(=O)O

Molecular target: T1, human GLP-1 receptor (Homo sapiens, UniProt P43220)
T1 construct: expressed in transfected cells; host or cells: BHK cells, clone BHK-467-12A; plasma membrane preparation
Assay: Functional receptor assay: cAMP formation in plasma membranes of BHK cells expressing the cloned human GLP-1 receptor (GLP1cAMPma)
Type: biochemical
Description: The term “insulinotropic agent” as used herein means a compound which is an agonist of the human GLP-1 receptor, i.e. a compound which stimulates the formation of cAMP in a suitable medium containing the human GLP-1 receptor (one such medium disclosed below). The potency of an insulinotropic agent is determined by calculating the EC50 value from the dose-response curve as described below.
The cells were washed twice in phosphate buffered saline and harvested with Versene. Plasma membranes were prepared from the cells by homogenisation with an Ultraturrax in buffer 1 (20 mM HEPES-Na, 10 mM EDTA, pH 7.4). The homogenate was centrifuged at 48,000×g for 15 min at 4° C. The pellet was suspended by homogenization in buffer 2 (20 mM HEPES-Na, 0.1 mM EDTA, pH 7.4), then centrifuged at 48,000×g for 15 min at 4° C. The washing procedure was repeated one more time. The final pellet was suspended in buffer 2 and used immediately for assays or stored at −80° C.
The functional receptor assay was carried out by measuring cyclic AMP (cAMP) as a response to stimulation by the insulinotropic agent. cAMP formed was quantified by the AlphaScreen™ cAMP Kit (Perkin Elmer Life Sciences). Incubations were carried out in half-area 96-well microtiter plates in a total volume of 50 μL buffer 3 (50 mM Tris-HCl, 5 mM HEPES, 10 mM MgCl2, pH 7.4) and with the following additions: 1 mM ATP, 1 μM GTP, 0.5 mM 3-isobutyl-1-methylxanthine (IBMX), 0.01% Tween-20, 0.1% BSA, 6 μg membrane preparation, 15 μg/mL acceptor beads, 20 μg/mL donor beads preincubated with 6 nM biotinyl-cAMP. […] GTP was freshly prepared for each experiment. The plate was incubated in the dark with slow agitation for three hours at room temperature followed by counting in the Fusion™ instrument (Perkin Elmer Life Sciences). Concentration-response curves were plotted for the individual compounds and EC50 values estimated using a four-parameter logistic model with Prism v. 4.0 (GraphPad, Carlsbad, Calif.).

[1] = cAMP, membranes with human GLP-1 receptor, mean value, read-out: GLP1cAMPma (3693) [EC50 (nM)] Mean Value

T1 sequence (P43220 24-463): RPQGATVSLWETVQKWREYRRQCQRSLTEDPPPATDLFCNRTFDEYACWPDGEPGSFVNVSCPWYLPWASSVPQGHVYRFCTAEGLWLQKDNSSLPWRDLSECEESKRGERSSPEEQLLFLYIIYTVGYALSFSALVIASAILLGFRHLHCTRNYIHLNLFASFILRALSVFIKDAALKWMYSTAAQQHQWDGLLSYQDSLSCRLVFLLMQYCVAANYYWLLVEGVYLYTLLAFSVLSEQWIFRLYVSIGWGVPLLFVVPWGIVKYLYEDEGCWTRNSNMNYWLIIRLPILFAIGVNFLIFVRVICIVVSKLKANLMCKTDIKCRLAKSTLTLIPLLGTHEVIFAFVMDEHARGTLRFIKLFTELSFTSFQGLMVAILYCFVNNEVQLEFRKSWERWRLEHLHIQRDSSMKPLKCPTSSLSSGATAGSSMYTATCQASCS

SMILES | EC50 [nM] | EC50 [1] [nM]
CCCCCCCCCCCCCCCCCC(=O)NCCOCCOCC(=O)NCCOCCOCC(=O)NCCOCCOCC(=O)NCCCC[C@H](NC(=O)[C@@H](NC(=O)[C@H](CC(C)C)NC(=O)[C@H](Cc1c[nH]c2ccccc12)NC(=O)[C@H](CCC(=O)O)NC(=O)[C@@H](NC(=O)[C@H](Cc1ccccc1)NC(=O)[C@H](CC(C)C)NC(=O)[C@H](CCCNC(=N)N)NC(=O)[C@@H](NC(=O)[C@H](C)NC(=O)[C@H](CCC(=O)O)NC(=O)[C@H](CCC(=O)O)NC(=O)[C@H](CCC(=O)O)NC(=O)[C@H](CC(C)C)NC(=O)[C@H](CCC(N)=O)NC(=O)[C@H](CCCNC(=N)N)NC(=O)[C@H](CO)NC(=O)[C@H](CC(C)C)NC(=O)[C@H](CC(=O)O)NC(=O)[C@H](CO)NC(=O)[C@@H](NC(=O)[C@H](Cc1ccccc1)NC(=O)[C@@H](NC(=O)CNC(=O)[C@H](CCC(=O)O)NC(=O)CNC(=O)[C@@H](N)Cc1c[nH]cn1)[C@@H](C)O)[C@@H](C)O)C(C)C)[C@@H](C)CC)C(C)C)C(=O)NCC(=O)NCC(=O)N1CCC[C@H]1C(=O)N[C@@H](CO)C(=O)N[C@@H](CO)C(=O)NCC(=O)N[C@@H](C)C(=O)N1CCC[C@H]1C(=O)N1CCC[C@H]1C(=O)N1CCC[C@H]1C(=O)N[C@@H](CO)C(N)=O [Example 3, N-ε^28-(2-(2-(2-(2-(2-(2-(2-(2-(2-(Octadecanoylamino)ethoxy)ethoxy)acetylamino)ethoxy)ethoxy)acetyl-amino)ethoxy)ethoxy)acetyl))[Arg^12,Leu^14,Val^27,Lys^28 Exendin-4(1-39)amide] (H-HGEGTFTSDLSRQLEEEAVRLFIEWLVK([AEEA-AEEA-AEEA-Stearoyl])GGPSSGAPPPS-NH2; N-terminus assumed) | 0.025 | –
CCCCCCCCCCCCCCCC(=O)N[C@@H](CCC(=O)NCCOCCOCC(=O)NCCOCCOCC(=O)NCCCC[C@H](NC(=O)[C@@H](NC(=O)[C@H](C)NC(=O)[C@H](CCC(=O)O)NC(=O)[C@H](CCC(=O)O)NC(=O)[C@H](CCC(=O)O)NC(=O)[C@H](CC(C)C)NC(=O)[C@H](CCC(N)=O)NC(=O)[C@H](CCCNC(=N)N)NC(=O)[C@H](CO)NC(=O)[C@H](CC(C)C)NC(=O)[C@H](CC(=O)O)NC(=O)[C@H](CO)NC(=O)[C@@H](NC(=O)[C@H](Cc1ccccc1)NC(=O)[C@@H](NC(=O)CNC(=O)[C@H](CCC(=O)O)NC(=O)CNC(=O)[C@@H](N)Cc1c[nH]cn1)[C@@H](C)O)[C@@H](C)O)C(C)C)C(=O)N[C@@H](CC(C)C)C(=O)N[C@@H](Cc1ccccc1)C(=O)N[C@H](C(=O)N[C@@H](CCC(=O)O)C(=O)N[C@@H](Cc1c[nH]c2ccccc12)C(=O)N[C@@H](CC(C)C)C(=O)N[C@@H](CCCNC(=N)N)C(=O)N[C@@H](CCCNC(=N)N)C(=O)NCC(=O)NCC(=O)N1CCC[C@H]1C(=O)N[C@@H](CO)C(=O)N[C@@H](CO)C(=O)NCC(=O)N[C@@H](C)C(=O)N1CCC[C@H]1C(=O)N1CCC[C@H]1C(=O)N1CCC[C@H]1C(=O)N[C@@H](CO)C(N)=O)[C@@H](C)CC)C(=O)O [Example 4, N-ε^20-[2-(2-[2-(2-[2-(2-[4-hexadecanoylamino-4(S)-carboxybutyrylamino]ethoxy)ethoxy]acetylamino)ethoxy]ethoxy)acetyl] [Arg^12,27,28,Leu^14,Lys^20]Exendin-4(1-39)amide] (H-HGEGTFTSDLSRQLEEEAVK([AEEA-AEEA-γGlu-Palmitoyl])LFIEWLRRGGPSSGAPPPS-NH2; N-terminus assumed) | – | 0.027
CC[C@H](C)[C@H](NC(=O)[C@H](Cc1ccccc1)NC(=O)[C@H](CC(C)C)NC(=O)[C@H](CCCCNC(=O)COCCOCCNC(=O)COCCOCCNC(=O)CCCCCCCCCCCCCCCCC(=O)O)NC(=O)[C@@H](NC(=O)[C@H](C)NC(=O)[C@H](CCC(=O)O)NC(=O)[C@H](CCC(=O)O)NC(=O)[C@H](CCC(=O)O)NC(=O)[C@H](CC(C)C)NC(=O)[C@H](CCC(N)=O)NC(=O)[C@H](CCCNC(=N)N)NC(=O)[C@H](CO)NC(=O)[C@H](CC(C)C)NC(=O)[C@H](CC(=O)O)NC(=O)[C@H](CO)NC(=O)[C@@H](NC(=O)[C@H](Cc1ccccc1)NC(=O)[C@@H](NC(=O)CNC(=O)[C@H](CCC(=O)O)NC(=O)CNC(=O)[C@@H](N)Cc1c[nH]cn1)[C@@H](C)O)[C@@H](C)O)C(C)C)C(=O)N[C@@H](CCC(=O)O)C(=O)N[C@@H](Cc1c[nH]c2ccccc12)C(=O)N[C@@H](CC(C)C)C(=O)N[C@@H](CCCNC(=N)N)C(=O)N[C@@H](CCC(N)=O)C(=O)NCC(=O)NCC(=O)N1CCC[C@H]1C(=O)N[C@@H](CO)C(=O)N[C@@H](CO)C(=O)NCC(=O)N[C@@H](C)C(=O)N1CCC[C@H]1C(=O)N1CCC[C@H]1C(=O)N1CCC[C@H]1C(=O)N[C@@H](CO)C(N)=O [Example 12, N-ε^20-(2-(2-(2-(2-(2-(2-(17-carboxyheptadecanoylamino)ethoxy)ethoxy)acetylamino)ethoxy)ethoxy)acetyl)[Arg12,Leu^14,Arg^27,Gln^28,Lys^20]Exendin-4 (1-39)amide] (H-HGEGTFTSDLSRQLEEEAVK([AEEA-AEEA-C18 diacid])LFIEWLRQGGPSSGAPPPS-NH2; N-terminus assumed) | – | 5.45
CCCCCCCCCCCCCCCCCC(=O)N[C@@H](CCC(=O)NCCOCCOCC(=O)NCCOCCOCC(=O)NCCCC[C@H](NC(=O)[C@@H]1CCCN1C(=O)CNC(=O)CNC(=O)[C@H](CCCNC(=N)N)NC(=O)[C@@H](NC(=O)[C@H](CC(C)C)NC(=O)[C@H](Cc1c[nH]c2ccccc12)NC(=O)[C@H](CCC(=O)O)NC(=O)[C@@H](NC(=O)[C@H](Cc1ccccc1)NC(=O)[C@H](CC(C)C)NC(=O)[C@H](CCCNC(=N)N)NC(=O)[C@@H](NC(=O)[C@H](C)NC(=O)[C@H](CCC(=O)O)NC(=O)[C@H](CCC(=O)O)NC(=O)[C@H](CCC(=O)O)NC(=O)[C@H](CC(C)C)NC(=O)[C@H](CCC(N)=O)NC(=O)[C@H](CCCNC(=N)N)NC(=O)[C@H](CO)NC(=O)[C@H](CC(C)C)NC(=O)[C@H](CC(=O)O)NC(=O)[C@H](CO)NC(=O)[C@@H](NC(=O)[C@H](Cc1ccccc1)NC(=O)[C@@H](NC(=O)CNC(=O)[C@H](CCC(=O)O)NC(=O)CNC(=O)[C@@H](N)Cc1c[nH]cn1)[C@@H](C)O)[C@@H](C)O)C(C)C)[C@@H](C)CC)C(C)C)C(=O)N[C@@H](CO)C(=O)NCC(=O)N[C@@H](C)C(=O)N1CCC[C@H]1C(=O)N1CCC[C@H]1C(=O)N1CCC[C@H]1C(=O)N[C@@H](CO)C(N)=O)C(=O)O [Example 17, N-ε^32-(2-(2-(2-(2-(2-(2-(4-(Octadecanoylamino)-4(S)-carboxybutyrylamino))ethoxy)ethoxy)acetylamino)ethoxy)ethoxy)acetyl[Arg^12,Leu^14,Val^27,Arg^28,Lys^32]Exendin-4-(1-39)amide] (H-HGEGTFTSDLSRQLEEEAVRLFIEWLVRGGPK([AEEA-AEEA-γGlu-Stearoyl])SGAPPPS-NH2; N-terminus assumed) | 0.025 | –
